Assay results published in patent US8273724B2, “Melanoma antigens and their use in diagnostic and therapeutic methods” (The United States of America, as represented by the …, priority 1994, dated 2012).
Where a SMILES comes first, the peptide text is derived from it.

System: T2 cell lines preincubated with peptide
Experiment: Recognition of modified peptides by natural epitope (M9-2, G9-154, G9-209, G9-280) reactive T-cells, 51Cr release on peptide-pulsed T2 cells (Example 5)
Type: cell-based, human
Description: Assessment of antigen recognition by CTL. ^51Cr release cytotoxic assays were performed to detect the recognition of peptide and melanoma cells by CTL. To analyze peptide recognition, T2 cell lines were preincubated for 2 h at 37° C. with 1 ug/ml peptide, washed and used as target cells in a ^51Cr release cytotoxic assay. The melanoma lines 624mel was established in our laboratory (See Example 1).
In order to make more immunogenic peptides for induction of anti-melanoma T-cells than natural melanoma epitopes, a variety of peptides in which at least 1 amino acid was changed based on consensus motifs in peptides binding to a specific MHC Class I allele Falk, et al. (1991) Nature 351:290; Kubo et al. (1994) J. Immunol 152:3913; Parker, K. et al. (1992) Journal of Immunology 149:3580; Ruppert, J. et al. (1993) Cell 74:929-937) (Tables 14, 15, 16, and 17). […] By changing amino acid at the 1st, 2nd, 3rd or 9th positions which are important for HLA-A2 binding to the peptide, but less important for recognition by T-cell receptors, artificial peptides which can bind to HLA-A2.1 with higher affinity and still be recognized by natural epitope specific T-cells may be generated.

SMILES	Recognition by G9-154 reactive T-cell	Recognition by G9-209 reactive T-cell	Recognition by M9-2 reactive T-cell
CC(C)C[C@H](NC(=O)[C@H](C)N)C(=O)N[C@@H](Cc1c[nH]c2ccccc12)C(=O)NCC(=O)N[C@@H](CCC(N)=O)C(=O)N[C@@H](Cc1ccc(O)cc1)C(=O)N[C@@H](Cc1c[nH]c2ccccc12)C(=O)N[C@@H](CCC(N)=O)C(=O)N[C@H](C(=O)O)C(C)C [G9-154-1A2L] (H-ALWGQYWQV-OH; N-terminus and C-terminus assumed)	+ (+, recognized)		
CC(C)[C@H](NC(=O)[C@H](CO)NC(=O)[C@H](Cc1ccccc1)NC(=O)[C@@H]1CCCN1C(=O)[C@@H](NC(=O)[C@H](CCC(N)=O)NC(=O)[C@H](CC(=O)O)NC(=O)[C@@H](NC(=O)[C@@H](N)Cc1c[nH]c2ccccc12)[C@@H](C)O)C(C)C)C(=O)O [G9-209-1W] (H-WTDQVPFSV-OH; N-terminus and C-terminus assumed)		+ (+, recognized)	
CC[C@H](C)[C@H](N)C(=O)N[C@@H](CC(C)C)C(=O)N[C@@H](C)C(=O)N[C@@H](CCC(N)=O)C(=O)N[C@H](C(=O)N1CCC[C@H]1C(=O)N[C@@H](Cc1ccccc1)C(=O)N[C@@H](CO)C(=O)N[C@H](C(=O)O)C(C)C)C(C)C [G9-209-2L3A]		−	
CC[C@H](C)[C@H](N)C(=O)N[C@@H](CC(C)C)C(=O)N[C@@H](Cc1ccccc1)C(=O)N[C@@H](CCC(N)=O)C(=O)N[C@H](C(=O)N1CCC[C@H]1C(=O)N[C@@H](Cc1ccccc1)C(=O)N[C@@H](CO)C(=O)N[C@H](C(=O)O)C(C)C)C(C)C [G9-209-2L3F]		−	
CC[C@H](C)[C@H](N)C(=O)N[C@@H](CC(C)C)C(=O)N[C@@H](CCSC)C(=O)N[C@@H](CCC(N)=O)C(=O)N[C@H](C(=O)N1CCC[C@H]1C(=O)N[C@@H](Cc1ccccc1)C(=O)N[C@@H](CO)C(=O)N[C@H](C(=O)O)C(C)C)C(C)C [G9-209-2L3M]		−	
CC[C@H](C)[C@H](N)C(=O)N[C@@H](CC(C)C)C(=O)N[C@@H](CO)C(=O)N[C@@H](CCC(N)=O)C(=O)N[C@H](C(=O)N1CCC[C@H]1C(=O)N[C@@H](Cc1ccccc1)C(=O)N[C@@H](CO)C(=O)N[C@H](C(=O)O)C(C)C)C(C)C [G9-209-2L3S] (H-ILSQVPFSV-OH; N-terminus and C-terminus assumed)		−	
CC[C@H](C)[C@H](N)C(=O)N[C@@H](CC(C)C)C(=O)N[C@@H](Cc1c[nH]c2ccccc12)C(=O)N[C@@H](CCC(N)=O)C(=O)N[C@H](C(=O)N1CCC[C@H]1C(=O)N[C@@H](Cc1ccccc1)C(=O)N[C@@H](CO)C(=O)N[C@H](C(=O)O)C(C)C)C(C)C [G9-209-2L3W] (H-ILWQVPFSV-OH; N-terminus and C-terminus assumed)		−	
CC[C@H](C)[C@H](N)C(=O)N[C@@H](CC(C)C)C(=O)N[C@@H](Cc1ccc(O)cc1)C(=O)N[C@@H](CCC(N)=O)C(=O)N[C@H](C(=O)N1CCC[C@H]1C(=O)N[C@@H](Cc1ccccc1)C(=O)N[C@@H](CO)C(=O)N[C@H](C(=O)O)C(C)C)C(C)C [G9-209-2L3Y] (H-ILYQVPFSV-OH; N-terminus and C-terminus assumed)		−	
CC[C@H](C)[C@H](N)C(=O)N[C@H](C(=O)N[C@@H](C)C(=O)N[C@@H](CCC(N)=O)C(=O)N[C@H](C(=O)N1CCC[C@H]1C(=O)N[C@@H](Cc1ccccc1)C(=O)N[C@@H](CO)C(=O)N[C@H](C(=O)O)C(C)C)C(C)C)[C@@H](C)O [G9-209-3A]		−	
CC[C@H](C)[C@H](N)C(=O)N[C@H](C(=O)N[C@@H](Cc1ccccc1)C(=O)N[C@@H](CCC(N)=O)C(=O)N[C@H](C(=O)N1CCC[C@H]1C(=O)N[C@@H](Cc1ccccc1)C(=O)N[C@@H](CO)C(=O)N[C@H](C(=O)O)C(C)C)C(C)C)[C@@H](C)O [G9-209-3F] (H-ITFQVPFSV-OH; N-terminus and C-terminus assumed)		−	
CC[C@H](C)[C@H](N)C(=O)N[C@H](C(=O)N[C@@H](CCSC)C(=O)N[C@@H](CCC(N)=O)C(=O)N[C@H](C(=O)N1CCC[C@H]1C(=O)N[C@@H](Cc1ccccc1)C(=O)N[C@@H](CO)C(=O)N[C@H](C(=O)O)C(C)C)C(C)C)[C@@H](C)O [G9-209-3M] (H-ITMQVPFSV-OH; N-terminus and C-terminus assumed)		−	
CC[C@H](C)[C@H](N)C(=O)N[C@H](C(=O)N[C@@H](CO)C(=O)N[C@@H](CCC(N)=O)C(=O)N[C@H](C(=O)N1CCC[C@H]1C(=O)N[C@@H](Cc1ccccc1)C(=O)N[C@@H](CO)C(=O)N[C@H](C(=O)O)C(C)C)C(C)C)[C@@H](C)O [G9-209-3S]		−	
CC[C@H](C)[C@H](N)C(=O)N[C@H](C(=O)N[C@@H](Cc1c[nH]c2ccccc12)C(=O)N[C@@H](CCC(N)=O)C(=O)N[C@H](C(=O)N1CCC[C@H]1C(=O)N[C@@H](Cc1ccccc1)C(=O)N[C@@H](CO)C(=O)N[C@H](C(=O)O)C(C)C)C(C)C)[C@@H](C)O [G9-209-3W]		−	
CC[C@H](C)[C@H](N)C(=O)N[C@H](C(=O)N[C@@H](Cc1ccc(O)cc1)C(=O)N[C@@H](CCC(N)=O)C(=O)N[C@H](C(=O)N1CCC[C@H]1C(=O)N[C@@H](Cc1ccccc1)C(=O)N[C@@H](CO)C(=O)N[C@H](C(=O)O)C(C)C)C(C)C)[C@@H](C)O [G9-209-3Y] (H-ITYQVPFSV-OH; N-terminus and C-terminus assumed)		−	
CC[C@H](C)[C@H](NC(=O)CNC(=O)[C@H](CC(C)C)NC(=O)[C@@H](N)Cc1ccccc1)C(=O)NCC(=O)N[C@H](C(=O)N[C@@H](CC(C)C)C(=O)N[C@H](C(=O)N[C@H](C(=O)O)C(C)C)[C@@H](C)O)[C@@H](C)CC [M9-2-1F2L]			−
CC[C@H](C)[C@H](NC(=O)CNC(=O)[C@@H](NC(=O)[C@@H](N)CCCCN)[C@@H](C)CC)C(=O)NCC(=O)N[C@H](C(=O)N[C@@H](CC(C)C)C(=O)N[C@H](C(=O)N[C@H](C(=O)O)C(C)C)[C@@H](C)O)[C@@H](C)CC [M9-2-1K2I]			−
CC[C@H](C)[C@H](NC(=O)CNC(=O)[C@H](CC(C)C)NC(=O)[C@@H](N)CCCCN)C(=O)NCC(=O)N[C@H](C(=O)N[C@@H](CC(C)C)C(=O)N[C@H](C(=O)N[C@H](C(=O)O)C(C)C)[C@@H](C)O)[C@@H](C)CC [M9-2-1K2L]			−
CC[C@H](C)[C@H](NC(=O)CNC(=O)[C@H](CCSC)NC(=O)[C@@H](N)CCCCN)C(=O)NCC(=O)N[C@H](C(=O)N[C@@H](CC(C)C)C(=O)N[C@H](C(=O)N[C@H](C(=O)O)C(C)C)[C@@H](C)O)[C@@H](C)CC [M9-2-1K2M]			−
CC[C@H](C)[C@H](NC(=O)CNC(=O)[C@H](CC(C)C)NC(=O)[C@@H](N)Cc1c[nH]c2ccccc12)C(=O)NCC(=O)N[C@H](C(=O)N[C@@H](CC(C)C)C(=O)N[C@H](C(=O)N[C@H](C(=O)O)C(C)C)[C@@H](C)O)[C@@H](C)CC [M9-2-1W2L]			−
CC[C@H](C)[C@H](NC(=O)CNC(=O)[C@H](C)NC(=O)[C@@H](N)Cc1c[nH]c2ccccc12)C(=O)NCC(=O)N[C@H](C(=O)N[C@@H](CC(C)C)C(=O)N[C@H](C(=O)N[C@H](C(=O)O)C(C)C)[C@@H](C)O)[C@@H](C)CC [M9-2-1W]			+ (+, recognized)
CC[C@H](C)[C@H](NC(=O)CNC(=O)[C@H](CC(C)C)NC(=O)[C@@H](N)Cc1ccc(O)cc1)C(=O)NCC(=O)N[C@H](C(=O)N[C@@H](CC(C)C)C(=O)N[C@H](C(=O)N[C@H](C(=O)O)C(C)C)[C@@H](C)O)[C@@H](C)CC [M9-2-1Y2L]			−
CC[C@H](C)[C@H](NC(=O)CNC(=O)[C@H](C)NC(=O)[C@@H](N)Cc1ccc(O)cc1)C(=O)NCC(=O)N[C@H](C(=O)N[C@@H](CC(C)C)C(=O)N[C@H](C(=O)N[C@H](C(=O)O)C(C)C)[C@@H](C)O)[C@@H](C)CC [M9-2-1Y]			−
CC[C@H](C)[C@H](NC(=O)CNC(=O)[C@@H](NC(=O)[C@H](C)N)[C@@H](C)CC)C(=O)NCC(=O)N[C@H](C(=O)N[C@@H](CC(C)C)C(=O)N[C@H](C(=O)N[C@H](C(=O)O)C(C)C)[C@@H](C)O)[C@@H](C)CC [M9-2-2I]			−
CC[C@H](C)[C@H](NC(=O)CNC(=O)[C@@H](NC(=O)[C@H](Cc1ccccc1)NC(=O)[C@H](CC(C)C)NC(=O)[C@H](C)N)[C@@H](C)CC)C(=O)N[C@@H](CC(C)C)C(=O)N[C@H](C(=O)N[C@H](C(=O)O)C(C)C)[C@@H](C)O [M9-2-2L3F]			−
CC[C@H](C)[C@H](NC(=O)CNC(=O)[C@@H](NC(=O)[C@H](Cc1c[nH]c2ccccc12)NC(=O)[C@H](CC(C)C)NC(=O)[C@H](C)N)[C@@H](C)CC)C(=O)N[C@@H](CC(C)C)C(=O)N[C@H](C(=O)N[C@H](C(=O)O)C(C)C)[C@@H](C)O [M9-2-2L3W]			−
CC[C@H](C)[C@H](NC(=O)CNC(=O)[C@@H](NC(=O)[C@H](Cc1ccc(O)cc1)NC(=O)[C@H](CC(C)C)NC(=O)[C@H](C)N)[C@@H](C)CC)C(=O)N[C@@H](CC(C)C)C(=O)N[C@H](C(=O)N[C@H](C(=O)O)C(C)C)[C@@H](C)O [M9-2-2L3Y]			−
CC[C@H](C)[C@H](NC(=O)CNC(=O)[C@H](CCSC)NC(=O)[C@H](C)N)C(=O)NCC(=O)N[C@H](C(=O)N[C@@H](CC(C)C)C(=O)N[C@H](C(=O)N[C@H](C(=O)O)C(C)C)[C@@H](C)O)[C@@H](C)CC [M9-2-2M]			−
